Laboratory results: PubChem BioAssay AID588415 (Sanford-Burnham Center for Chemical Genomics, 2011)
The source made the active and inactive calls.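 Rule for the calls: active = IC50 at or below 20 µM; inactive = the rest.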

These compounds were tested against glucose-6-phosphate dehydrogenase-6-phosphogluconolactonase (PfGluPho), Plasmodium falciparum 3D7 (assay: PfG6PD enzyme inhibitors, SAR follow-up, biochemical, fluorescence intensity (AID 588415)). Settings: recombinant PfG6PD, resazurin-diaphorase NADPH fluorescence.

Structure (SMILES) | IC50
Cc1ccc(C(=O)Nc2nnc(S(=O)(=O)N3CCCc4ccccc43)s2)cc1 | > 80 µM (inactive)
CCCN(CCC)CCNC(=O)c1ccc2c(c1)NC(=O)/C(=C\c1ccc(C)cc1)S2 | > 80 µM (inactive)
Cc1ccccc1C(=O)Nc1nnc(S(=O)(=O)N2CCCCCC2)s1 | > 80 µM (inactive)
O=C(Nc1nnc(S(=O)(=O)N2CCCCCC2)s1)c1cccc(Cl)c1 | 5.6 µM
O=C(Nc1nnc(S(=O)(=O)N2CCCCCC2)s1)C1CCCCC1 | > 80 µM (inactive)
CCN(CCNC(=O)c1ccc2c(c1)N(CC)C(=O)c1ccccc1S2)c1ccccc1 | > 80 µM (inactive)
Cc1ccc(CN2C(=O)c3ccccc3Sc3ccc(C(=O)NCCN(C)C)cc32)cc1 | inactive
COc1ccc(/C=C2/Sc3ccc(C(=O)NCCN(C)C)cc3NC2=O)cc1 | > 80 µM (inactive)
Cc1cccc(C(=O)Nc2nnc(S(=O)(=O)N3c4ccccc4CC3C)s2)c1 (centres undefined) | > 80 µM (inactive)
CCN(CC)CCNC(=O)c1ccc2c(c1)NC(=O)/C(=C\c1ccc(OC)cc1)S2 | inactive
CCN(CC)CCNC(=O)c1ccc2c(c1)N(Cc1cc(C)ccc1C)C(=O)c1ccccc1S2 | > 80 µM (inactive)
CC1Cc2ccccc2N1S(=O)(=O)c1nnc(NC(=O)c2cccc(F)c2)s1 (centres undefined) | > 80 µM (inactive)
COc1cccc(C(=O)Nc2nnc(S(=O)(=O)N3CCCCCC3)s2)c1 | 4.89 µM
Cc1cccc(C(=O)Nc2nnc(S(=O)(=O)N3CCOCC3)s2)c1 | 4.17 µM
CCN(CC)CCNC(=O)c1ccc2c(c1)NC(=O)/C(=C\c1ccc(OC)c(OC)c1)S2 | inactive
O=C(Nc1nnc(S(=O)(=O)N2CCOCC2)s1)c1cccc(F)c1 | inactive
COc1ccccc1C(=O)Nc1nnc(S(=O)(=O)N2CCCCCC2)s1 | > 80 µM (inactive)
COc1ccc(C(=O)Nc2nnc(S(=O)(=O)N3CCCCCC3)s2)cc1OC | > 80 µM (inactive)
Cc1ccc(C(=O)Nc2nnc(S(=O)(=O)N3CCCCCC3)s2)cc1 | > 80 µM (inactive)
O=C(Nc1nnc(S(=O)(=O)N2CCCCCC2)s1)c1ccc(F)cc1 | inactive

Structure (SMILES) | IC50
O=C(Nc1nnc(S(=O)(=O)N2CCCc3ccccc32)s1)c1cccc(F)c1 | > 80 µM (inactive)
CCOc1ccc(C(=O)Nc2nnc(S(=O)(=O)N3CCCCCC3)s2)cc1 | > 80 µM (inactive)
CC1Cc2ccccc2N1S(=O)(=O)c1nnc(NC(=O)c2cccc(Br)c2)s1 (centres undefined) | > 80 µM (inactive)
Cc1cccc(C(=O)Nc2nnc(S(=O)(=O)N3CCCCCC3)s2)c1 | 8.71 µM
O=C(Nc1nnc(S(=O)(=O)N2CCCCCC2)s1)c1cccc(F)c1 | > 80 µM (inactive)
O=C(Nc1nnc(S(=O)(=O)N2CCCCCC2)s1)c1cccc(Br)c1 | 7.35 µM
COc1cccc(/C=C2/Sc3ccc(C(=O)NCCN4CCCCCC4)cc3NC2=O)c1 | > 80 µM (inactive)
COc1ccc(C(=O)Nc2nnc(S(=O)(=O)N3CCCCCC3)s2)cc1 | inactive
O=C(Nc1nnc(S(=O)(=O)N2CCCCCC2)s1)c1ccco1 | > 80 µM (inactive)
CCN(CCNC(=O)c1ccc2c(c1)N(Cc1cc(C)ccc1C)C(=O)c1ccccc1S2)c1ccccc1 | > 80 µM (inactive)
O=C(Nc1nnc(S(=O)(=O)N2CCCCCC2)s1)c1ccccc1F | > 80 µM (inactive)
O=C(Nc1nnc(S(=O)(=O)N2CCCCC2)s1)c1cccc(F)c1 | > 80 µM (inactive)
Cc1ccc(C(=O)Nc2nnc(S(=O)(=O)N3c4ccccc4CC3C)s2)cc1 (centres undefined) | > 80 µM (inactive)
O=C(Nc1nnc(S(=O)(=O)N2CCCCCC2)s1)c1ccccc1 | inactive
CCN(CC)CCNC(=O)c1ccc2c(c1)N(Cc1ccccc1Cl)C(=O)c1ccccc1S2 | > 80 µM (inactive)
Cc1cccc(C(=O)Nc2nnc(S(=O)(=O)N3CCCc4ccccc43)s2)c1 | > 80 µM (inactive)
Cc1cccc(C(=O)Nc2nnc(S(=O)(=O)N3CCC(C)CC3)s2)c1 | 13 µM
Cc1ccccc1C(=O)Nc1nnc(S(=O)(=O)N2CCCc3ccccc32)s1 | > 80 µM (inactive)
CCN(CC)CCNC(=O)c1ccc2c(c1)N(Cc1ccc(C)cc1)C(=O)c1ccccc1S2 | inactive
COc1ccc(/C=C2/Sc3ccc(C(=O)NCCN4CCCCCC4)cc3NC2=O)cc1 | > 80 µM (inactive)

Next, values leading:

IC50 | Structure (SMILES)
1.73 µM | CCN1CCCC1CNC(=O)c1ccc2c(c1)NC(=O)/C(=C/c1ccccc1F)S2 (centres undefined)
> 80 µM (inactive) | CCN1CCCC1CNC(=O)c1ccc2c(c1)N(Cc1ccc(C(F)(F)F)cc1)C(=O)c1ccccc1S2 (centres undefined)
inactive | O=C1Nc2cc(C(=O)NCCN3CCCCCC3)ccc2S/C1=C/c1ccccc1F
> 80 µM (inactive) | CCN1CCCC1CNC(=O)c1ccc2c(c1)N(Cc1cccc(F)c1)C(=O)c1ccccc1S2 (centres undefined)
inactive | CCN(CC)CCNC(=O)c1ccc2c(c1)NC(=O)c1ccccc1S2
6.36 µM | CCC(C)N(CCNC(=O)c1ccc2c(c1)NC(=O)c1ccccc1S2)C1CCCCC1 (centres undefined)
7.36 µM | CCN(CC)CCNC(=O)c1ccc2c(c1)NC(=O)/C(=C\c1ccccc1F)S2
8.81 µM | CCN(CC)CCNC(=O)c1ccc2c(c1)NC(=O)/C(=C/c1ccccc1)S2
inactive | CN(C)CCNC(=O)c1ccc2c(c1)NC(=O)/C(=C\c1cccc(Cl)c1)S2
1.75 µM | CCN1CCCC1CNC(=O)c1ccc2c(c1)NC(=O)/C(=C\c1ccccc1F)S2 (centres undefined)
> 80 µM (inactive) | CCCN(CCC)CCNC(=O)c1ccc2c(c1)NC(=O)/C(=C/c1ccccc1)S2
> 80 µM (inactive) | CCN1CCCC1CNC(=O)c1ccc2c(c1)N(Cc1ccccc1F)C(=O)c1ccccc1S2 (centres undefined)
12.2 µM | CCN1CCCC1CNC(=O)c1ccc2c(c1)NC(=O)c1ccccc1S2 (centres undefined)
inactive | COc1cccc(/C=C2/Sc3ccc(C(=O)NCCN4CCCC4)cc3NC2=O)c1
> 80 µM (inactive) | Cc1cccc(N2CCN(CCNC(=O)c3ccc4c(c3)NC(=O)c3ccccc3S4)CC2)c1C
inactive | CN(CCNC(=O)c1ccc2c(c1)NC(=O)c1ccccc1S2)C1CCCCC1
inactive | COc1ccc(/C=C2/Sc3ccc(C(=O)NCCN4CCCC4)cc3NC2=O)cc1
16.2 µM | CCN(CC)CCNC(=O)c1ccc2c(c1)NC(=O)/C(=C\c1ccccc1Cl)S2
> 80 µM (inactive) | CCN(CCNC(=O)c1ccc2c(c1)NC(=O)c1ccccc1S2)c1ccccc1
inactive | O=C1Nc2cc(C(=O)NCCN3CCCCCC3)ccc2S/C1=C/c1ccccc1Cl
> 80 µM (inactive) | CCN1CCCC1CNC(=O)c1ccc2c(c1)N(Cc1ccccc1Cl)C(=O)c1ccccc1S2 (centres undefined)
11.1 µM | O=C1Nc2cc(C(=O)NCCN3CCCC3)ccc2S/C1=C/c1ccccc1Cl
11.8 µM | Cc1cccc(/C=C2/Sc3ccc(C(=O)NCCN4CCCC4)cc3NC2=O)c1
2.56 µM | CCN1CCCC1CNC(=O)c1ccc2c(c1)NC(=O)/C(=C\c1ccccc1Cl)S2 (centres undefined)
